# Source: patent US10597388B2, “Pyridazinone herbicides” (FMC CORPORATION, priority 2014, dated 2020)
# Read-outs that look alike come from different tables or passages of the source.
# Legend:
# Test in all cases: Test A greenhouse herbicide test, pre- and postemergence
# Type in all cases: in vivo
# [1] = tested on: pigweed (Amaranthus retroflexus); conditions: for pest or weed control at 125 g/ha / pest or weed control at 500 g/ha: Amaranthus retroflexus, 240 h
# In short: (§1)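 Seeds sown in loam–sand blend got a preemergence directed soil spray of compound in non-phytotoxic solvent with surfactant. Postemergence treatment was given at 2–10 cm, one- to two-leaf stage. After ~10 d in greenhouse, injury was rated visually vs untreated controls, 0 (no effect) to 100 (complete control).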
# [2] = tested on: kochia (Kochia scoparia); conditions: for pest or weed control at 125 g/ha / pest or weed control at 500 g/ha: Bassia scoparia, 240 h
# In short: as §1
# [3] = tested on: foxtail, giant (giant foxtail, Setaria faberii); conditions: for pest or weed control at 125 g/ha / pest or weed control at 500 g/ha: Setaria faberi, 240 h
# In short: as §1
# [4] = tested on: ryegrass, Italian (Italian ryegrass, Lolium multiflorum); conditions: for pest or weed control at 125 g/ha / pest or weed control at 500 g/ha: Lolium multiflorum, 240 h
# In short: as §1
# [5] = tested on: wheat (Triticum aestivum); conditions: Postemergence
# In short: as §1
# [6] = tested on: ragweed (common ragweed, Ambrosia elatior); conditions: for pest or weed control at 125 g/ha / pest or weed control at 500 g/ha: Ambrosia artemisiifolia, 240 h
# In short: as §1
# [7] = tested on: barnyardgrass (Echinochloa crus-galli); conditions: for pest or weed control at 125 g/ha / pest or weed control at 500 g/ha: Echinochloa crus-galli, 240 h
# In short: as §1
# [8] = tested on: corn (Zea mays); conditions: Postemergence
# In short: as §1
# [9] = Postemergence, 125 g ai/ha, visual rating after approx. 10 d, 0 to 100 scale (0 no effect, 100 complete control)
# [10] = Postemergence, 500 g ai/ha, 0 to 100 scale, 0 is no effect, 100 is complete control
# [11] = Preemergence, 125 g ai/ha, 0 to 100 scale where 0 is no effect and 100 is complete control
# [12] = Preemergence, 500 g ai/ha, 0 to 100 scale, 0 no effect, 100 complete control
# [13] = 125 g ai/ha, visual rating after approx. 10 d, 0 to 100 scale (0 no effect, 100 complete control)
# [14] = 500 g ai/ha, 0 to 100 scale, 0 is no effect, 100 is complete control
compound,measurement,setting,value
"Cc1cc(C)c2oc(C)c(-c3c(OC(=O)C(C)(C)C)c(C)nn(C)c3=O)c2c1 [Compound 18, 1,6-dihydro-1,3-dimethyl-6-oxo-5-(2,5,7-trimethyl-3-benzofuranyl)-4-pyridazinyl 2,2-dimethylpropanoate]",pest or weed control at 125 g/ha,"[1]; post-emergence, Postemergence, 125 g ai/ha, visual rating after approx. 10 d, 0 to 100 scale (0 no effect, 100 complete control), read-out: Plant response rating, Pigweed",0%
same,pest or weed control at 500 g/ha,"[1]; post-emergence, Postemergence, 500 g ai/ha, 0 to 100 scale, 0 is no effect, 100 is complete control, read-out: Pigweed plant response rating",0%
same,pest or weed control at 125 g/ha,"[1]; pre-emergence, Preemergence, 125 g ai/ha, 0 to 100 scale where 0 is no effect and 100 is complete control, read-out: Pigweed plant response rating",0%
same,pest or weed control at 500 g/ha,"[1]; pre-emergence, Preemergence, 500 g ai/ha, 0 to 100 scale, 0 no effect, 100 complete control, read-out: Plant response rating, Pigweed",0%
same,pest or weed control at 125 g/ha,"[2]; post-emergence, Postemergence, 125 g ai/ha, visual rating after approx. 10 d, 0 to 100 scale (0 no effect, 100 complete control), read-out: Plant response rating, Kochia",0%
same,pest or weed control at 500 g/ha,"[2]; post-emergence, Postemergence, 500 g ai/ha, 0 to 100 scale, 0 is no effect, 100 is complete control, read-out: Kochia plant response rating",0%
same,pest or weed control at 125 g/ha,"[2]; pre-emergence, Preemergence, 125 g ai/ha, 0 to 100 scale where 0 is no effect and 100 is complete control, read-out: Kochia plant response rating",0%
same,pest or weed control at 500 g/ha,"[2]; pre-emergence, Preemergence, 500 g ai/ha, 0 to 100 scale, 0 no effect, 100 complete control, read-out: Plant response rating, Kochia",0%
same,pest or weed control at 125 g/ha,"[3]; post-emergence, Postemergence, 125 g ai/ha, visual rating after approx. 10 d, 0 to 100 scale (0 no effect, 100 complete control), read-out: Plant response rating, Foxtail, Giant",0%
same,pest or weed control at 500 g/ha,"[3]; post-emergence, Postemergence, 500 g ai/ha, 0 to 100 scale, 0 is no effect, 100 is complete control, read-out: Foxtail, Giant plant response rating",20%
same,pest or weed control at 125 g/ha,"[3]; pre-emergence, Preemergence, 125 g ai/ha, 0 to 100 scale where 0 is no effect and 100 is complete control, read-out: Foxtail, Giant plant response rating",0%
same,pest or weed control at 500 g/ha,"[3]; pre-emergence, Preemergence, 500 g ai/ha, 0 to 100 scale, 0 no effect, 100 complete control, read-out: Plant response rating, Foxtail, Giant",0%
same,pest or weed control at 125 g/ha,"[4]; post-emergence, Postemergence, 125 g ai/ha, visual rating after approx. 10 d, 0 to 100 scale (0 no effect, 100 complete control), read-out: Plant response rating, Ryegrass, Italian",10%
same,pest or weed control at 500 g/ha,"[4]; post-emergence, Postemergence, 500 g ai/ha, 0 to 100 scale, 0 is no effect, 100 is complete control, read-out: Ryegrass, Italian plant response rating",50%
same,pest or weed control at 125 g/ha,"[4]; pre-emergence, Preemergence, 125 g ai/ha, 0 to 100 scale where 0 is no effect and 100 is complete control, read-out: Ryegrass, Italian plant response rating",0%
same,pest or weed control at 500 g/ha,"[4]; pre-emergence, Preemergence, 500 g ai/ha, 0 to 100 scale, 0 no effect, 100 complete control, read-out: Plant response rating, Ryegrass, Italian",20%
same,plant injury at 125 g/ha,"[5]; Triticum aestivum, post-emergence, 240 h, 125 g ai/ha, visual rating after approx. 10 d, 0 to 100 scale (0 no effect, 100 complete control), read-out: Plant response rating, Wheat",0%
same,plant injury at 500 g/ha,"[5]; Triticum aestivum, post-emergence, 240 h, 500 g ai/ha, 0 to 100 scale, 0 is no effect, 100 is complete control, read-out: Wheat plant response rating",0%
same,pest or weed control at 125 g/ha,"[6]; post-emergence, Postemergence, 125 g ai/ha, visual rating after approx. 10 d, 0 to 100 scale (0 no effect, 100 complete control), read-out: Plant response rating, Ragweed",0%
same,pest or weed control at 500 g/ha,"[6]; post-emergence, Postemergence, 500 g ai/ha, 0 to 100 scale, 0 is no effect, 100 is complete control, read-out: Ragweed plant response rating",0%
same,pest or weed control at 125 g/ha,"[6]; pre-emergence, Preemergence, 125 g ai/ha, 0 to 100 scale where 0 is no effect and 100 is complete control, read-out: Ragweed plant response rating",0%
same,pest or weed control at 500 g/ha,"[6]; pre-emergence, Preemergence, 500 g ai/ha, 0 to 100 scale, 0 no effect, 100 complete control, read-out: Plant response rating, Ragweed",0%
same,pest or weed control at 125 g/ha,"[7]; post-emergence, Postemergence, 125 g ai/ha, visual rating after approx. 10 d, 0 to 100 scale (0 no effect, 100 complete control), read-out: Plant response rating, Barnyardgrass",0%
same,pest or weed control at 500 g/ha,"[7]; post-emergence, Postemergence, 500 g ai/ha, 0 to 100 scale, 0 is no effect, 100 is complete control, read-out: Barnyardgrass plant response rating",40%
same,pest or weed control at 125 g/ha,"[7]; pre-emergence, Preemergence, 125 g ai/ha, 0 to 100 scale where 0 is no effect and 100 is complete control, read-out: Barnyardgrass plant response rating",0%
same,pest or weed control at 500 g/ha,"[7]; pre-emergence, Preemergence, 500 g ai/ha, 0 to 100 scale, 0 no effect, 100 complete control, read-out: Plant response rating, Barnyardgrass",0%
same,"Corn plant response rating (crop injury, 0 = no effect, 100 = complete kill) at 125 g/ha","[8]; Zea mays, post-emergence, 240 h, 125 g ai/ha, visual rating after approx. 10 d, 0 to 100 scale (0 no effect, 100 complete control)",0%
same,plant injury at 500 g/ha,"[8]; Zea mays, post-emergence, 240 h, 500 g ai/ha, 0 to 100 scale, 0 is no effect, 100 is complete control, read-out: Corn plant response rating",20%
Cc1nn(C)c(=O)c(-c2c(C)sc3ccc(Br)cc23)c1O [Compound 22],"Plant response rating, Pigweed",[1]; [9],100
same,Pigweed plant response rating,[1]; [10],100
same,Pigweed plant response rating,[1]; [11],100
same,"Plant response rating, Pigweed",[1]; [12],100
same,"Plant response rating, Kochia",[2]; [9],100
same,Kochia plant response rating,[2]; [10],100
same,Kochia plant response rating,[2]; [11],70
same,"Plant response rating, Kochia",[2]; [12],100
same,"Plant response rating, Foxtail, Giant",[3]; [9],60
same,"Foxtail, Giant plant response rating",[3]; [10],90
same,"Foxtail, Giant plant response rating",[3]; [11],70
same,"Plant response rating, Foxtail, Giant",[3]; [12],90
same,"Plant response rating, Ryegrass, Italian",[4]; [9],80
same,"Ryegrass, Italian plant response rating",[4]; [10],100
same,"Ryegrass, Italian plant response rating",[4]; [11],100
same,"Plant response rating, Ryegrass, Italian",[4]; [12],100
same,"Plant response rating, Wheat",[5]; [13],0
same,Wheat plant response rating,[5]; [14],0
same,"Plant response rating, Ragweed",[6]; [9],90
same,Ragweed plant response rating,[6]; [10],100
same,Ragweed plant response rating,[6]; [11],90
same,"Plant response rating, Ragweed",[6]; [12],90
same,"Plant response rating, Barnyardgrass",[7]; [9],30
same,Barnyardgrass plant response rating,[7]; [10],50
same,Barnyardgrass plant response rating,[7]; [11],10
same,"Plant response rating, Barnyardgrass",[7]; [12],70
same,"Plant response rating, Corn",[8]; [13],0
same,Corn plant response rating,[8]; [14],0
Cc1ccc2ccccc2c1-c1c(O)c(Br)nn(C)c1=O [Compound 23],"Plant response rating, Pigweed",[1]; [9],100
same,Pigweed plant response rating,[1]; [10],100
same,Pigweed plant response rating,[1]; [11],100
same,"Plant response rating, Pigweed",[1]; [12],100
same,"Plant response rating, Kochia",[2]; [9],100
same,Kochia plant response rating,[2]; [10],100
same,Kochia plant response rating,[2]; [11],80
same,"Plant response rating, Kochia",[2]; [12],100
same,"Plant response rating, Foxtail, Giant",[3]; [9],90
same,"Foxtail, Giant plant response rating",[3]; [10],90
same,"Foxtail, Giant plant response rating",[3]; [11],90
same,"Plant response rating, Foxtail, Giant",[3]; [12],90
same,"Plant response rating, Ryegrass, Italian",[4]; [9],100
same,"Ryegrass, Italian plant response rating",[4]; [10],100
same,"Ryegrass, Italian plant response rating",[4]; [11],80
same,"Plant response rating, Ryegrass, Italian",[4]; [12],90
same,"Plant response rating, Wheat",[5]; [13],50
same,Wheat plant response rating,[5]; [14],80
same,"Plant response rating, Ragweed",[6]; [9],90
same,Ragweed plant response rating,[6]; [10],100
same,Ragweed plant response rating,[6]; [11],90
same,"Plant response rating, Ragweed",[6]; [12],90
same,"Plant response rating, Barnyardgrass",[7]; [9],80
same,Barnyardgrass plant response rating,[7]; [10],90
same,Barnyardgrass plant response rating,[7]; [11],90
same,"Plant response rating, Barnyardgrass",[7]; [12],90
same,"Plant response rating, Corn",[8]; [13],40
same,Corn plant response rating,[8]; [14],50
Cc1ccc2sc(C)c(-c3c(OC(=O)C(C)(C)C)c(C)nn(C)c3=O)c2c1 [Compound 26],"Plant response rating, Pigweed",[1]; [9],80
same,Pigweed plant response rating,[1]; [10],90
same,Pigweed plant response rating,[1]; [11],80
same,"Plant response rating, Pigweed",[1]; [12],100
same,"Plant response rating, Kochia",[2]; [9],80
same,Kochia plant response rating,[2]; [10],90
same,Kochia plant response rating,[2]; [11],30
same,"Plant response rating, Kochia",[2]; [12],30
same,"Plant response rating, Foxtail, Giant",[3]; [9],10
same,"Foxtail, Giant plant response rating",[3]; [10],60
same,"Foxtail, Giant plant response rating",[3]; [11],30
same,"Plant response rating, Foxtail, Giant",[3]; [12],50
same,"Plant response rating, Ryegrass, Italian","[4]; Postemergence, 125 g ai/ha, 0 to 100 scale where 0 is no effect and 100 is complete control",60
same,"Ryegrass, Italian plant response rating",[4]; [10],90
same,"Ryegrass, Italian plant response rating",[4]; [11],30
same,"Plant response rating, Ryegrass, Italian",[4]; [12],70
same,"Plant response rating, Wheat","[5]; 125 g ai/ha, 0 to 100 scale where 0 is no effect and 100 is complete control",0
same,Wheat plant response rating,[5]; [14],0
same,"Plant response rating, Ragweed",[6]; [9],60
same,Ragweed plant response rating,[6]; [10],90
same,Ragweed plant response rating,[6]; [11],20
same,"Plant response rating, Ragweed",[6]; [12],40
same,"Plant response rating, Barnyardgrass",[7]; [9],10
same,Barnyardgrass plant response rating,[7]; [10],30
same,Barnyardgrass plant response rating,[7]; [11],0
same,"Plant response rating, Barnyardgrass",[7]; [12],10
same,"Plant response rating, Corn",[8]; [13],0
same,Corn plant response rating,[8]; [14],0
